# Measurements taken from patent publication US9988380B2, “Quorum sensing inhibitors” (priority 2013, dated 2018).
# Where two headings read alike, the source gives them in different places.
# Assays:
# LasR = biological target: T1, LasR (Pseudomonas aeruginosa, UniProt P25084); assay: AHL competition assay between QSI and OdDHL in heterologous E. coli lasB-gfp(ASV) strain; assay type: cell-based, P. aeruginosa
# T1 construct: expressed in transfected cells; host or cells: E. coli lasB-gfp(ASV) reporter strain
# Experimental: E. coli Competition Assay between QSI compounds and OdDHL. The E. coli lasB-gfp(ASV) reporter strain was used for the competition assay, which was performed in a similar manner to the P. aeruginosa LasR inhibition assay. OdDHL and the QSI to be studied were added to the wells of a microtitre plate containing ABTGC media. Wells without OdDHL and/or QSI were included as controls. An overnight culture of E. coli lasB-gfp(ASV) strain, grown in LB medium at 37° C. with shaking, was diluted to an OD600 of 0.2, and 100 μl of bacterial suspension was added to each well of the microtitre plate. […] GFP and OD600 readings were obtained as described above for the P. aeruginosa LasR inhibition assay.
# AHL Competition Assay Using the Heterologous E. coli lasB-gfp (ASV) strain. The five QSI candidates were tested for their specificity in inhibiting the LasR receptor by incubating these QSIs with the E. coli lasB-gfp (ASV) reporter strain. LasR is under the control of the Lac promoter and is constitutively expressed, and only LasR can activate gfp expression in this system.
# [1] = system: P. aeruginosa PAO1 biofilms; assay: Glass slide biofilm assay for observation of eDNA release; assay type: cell-based; settings: ABTG medium containing 25 μM G1, 24 h, PI staining
# Experimental: Glass Slide Biofilm Assay for Observation of eDNA Release. The glass slide biofilm assay was performed (Liu et al. 2010 Synergistic activities of an efflux pump inhibitor and iron chelators against Pseudomonas aeruginosa growth and biofilm formation. Antimicrob Agents Chemother 54:3960-3963). Briefly, gfp-tagged P. aeruginosa PAO1 biofilms were cultivated in 50 ml BD falcon tubes containing 15 ml ABTG medium. A sterile 24 mm×60 mm glass cover slide was inserted into each falcon tube for supporting biofilm growth. G1 (10 μm) was added into the biofilm medium to examine its impact on P. aeruginosa PAO1 biofilm formation. DMSO was added alone to the medium as control. Biofilms were incubated at 37° C. without shaking. 2 μM propidium iodide (Sigma-Aldrich) was added to biofilm cultures to stain extracellular DNA for 5 min after 24-hour growth. After that, biofilm attached glass slides were observed by confocal laser scanning microscopy (CLSM).
# [2] = system: elastase production by P. aeruginosa PAO1; assay: Elastase assay of culture supernatants (EnzChek Elastase Assay Kit); assay type: cell-based; settings: 50 and 100 μM, 2 h cultivation
# Experimental: Elastase Assay. P. aeruginosa PAO1 wild-type and an elastase negative lasI rhlI mutant were cultivated in LB medium overnight at 37° C. with shaking. Overnight cultures were 1:100 diluted to 5 ml ABTGC medium and incubator at 37° C. with shaking. Compound G1 was supplemented into the PAO1 cultures at final concentrations of 0, 50, 100 μM respectively. After 2 h incubation, 0.8 mL culture supernatants were sampled by centrifugation (18000 g, 4 min) and filtration through 0.2 micron filters. Elastase activity of P. aeruginosa culture supernatants was measured by using The EnzChekElastase Assay Kit (Invitrogen), which uses BODIPY-FL-labeled DQ elastin conjugate as the substrate of elastase. The BODIPY-FL-labeled DQ elastins conjugate when cleaved by elastase enzyme, yields highly fluorescent fragments. Fluorescence was recorded every 6 min for 180 min by using a Tecan Infinite 200 Pro plate reader (excitation at 490 nm, emission at 520 nm).
# T1 sequence (P25084 whole entry): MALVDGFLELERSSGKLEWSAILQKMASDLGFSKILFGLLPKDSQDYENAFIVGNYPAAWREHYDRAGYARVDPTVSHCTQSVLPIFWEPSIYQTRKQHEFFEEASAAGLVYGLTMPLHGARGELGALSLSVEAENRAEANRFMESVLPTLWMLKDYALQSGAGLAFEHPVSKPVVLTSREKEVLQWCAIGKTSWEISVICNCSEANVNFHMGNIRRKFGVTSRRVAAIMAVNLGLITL
structure (smiles),measurement,setting,value
"N=c1[nH]c(=O)c2nn[nH]c2[nH]1 [Compound G1, 5-imino-4,6-dihydro-3H-1,2,3-triazolo[5,4-d]pyrimidin-7-one]",relative fluorescence (GFP/OD600),LasR; 320 nM OdDHL with 100 μM G1,711.5
same,relative fluorescence (GFP/OD600),LasR; 100 μM G1 and no OdDHL,438.1
same,specific inhibition of LasR activity in the competition assay,"LasR; E. coli lasB-gfp(ASV), with OdDHL",specifically inhibit LasR activity
same,concentration sufficient in inhibiting OdDHL-LasR induction of gfp expression,LasR; in the presence of 320 nM OdDHL,1.56 µM
same,inhibition at 100 µM,"LasR; read-out: inhibition as compared to the control without G1, 100 μM G1, in the absence of OdDHL",30.2%
same,inhibition at 100 µM,"LasR; read-out: inhibition as compared to the control without G1, 100 μM G1, in the presence of 320 nM OdDHL",46.9%
same,extracellular DNA (eDNA) in biofilms,[1],less eDNA was observed
same,elastase production (elastase activity of culture supernatants),[2],almost abolish elastase production
